Experimental data published in ChEMBL document CHEMBL1147838, “Design, synthesis, and evaluation of phenanthridine derivatives targeting the telomerase RNA/DNA heteroduplex” (Bioorg Med Chem Lett, 2007).

Experiment: Inhibition of telomerase by fluorescence based assay
Set-up: species or system Homo sapiens

IC50 | Structure (SMILES)
68.2 µM | CC[n+]1c(-c2ccccc2)c2cc(NC(=O)CCCC(N)=O)ccc2c2ccc(N)cc21
2.9 µM | NC(=O)c1ccc(C[n+]2c(-c3ccccc3)c3cc(N)ccc3c3ccc(N)cc32)cc1
23.3 µM | Nc1ccc2c(c1)c(-c1ccccc1)[n+](CCCCCC(=O)O)c1cc(N)ccc21
5.6 µM | CC[n+]1c(-c2ccccc2)c2cc(N)ccc2c2ccc(NC(=O)CCCC(N)=O)cc21
> 80 µM | CC[n+]1c(-c2ccccc2)c2cc(NC(=O)CCCC(=O)O)ccc2c2ccc(N)cc21

Second part, the molecule before the results:

Structure (SMILES) | IC50
CC[n+]1c(-c2ccccc2)c2cc(NC(=O)CCCC(=O)O)ccc2c2ccc(NC(=O)CCCC(=O)O)cc21 | 63.1 µM
NC(=O)CCCCC[n+]1c(-c2ccccc2)c2cc(N)ccc2c2ccc(N)cc21 | 30.3 µM
CC[n+]1c(-c2ccccc2)c2cc(NC(=O)CCCC(N)=O)ccc2c2ccc(NC(=O)CCCC(N)=O)cc21 | > 80 µM
Nc1ccc2c(c1)c(-c1ccccc1)[n+](Cc1ccc(C(=O)O)cc1)c1cc(N)ccc21 | 27.3 µM
CC[n+]1c(-c2ccccc2)c2cc(N)ccc2c2ccc(NC(=O)CCCC(=O)O)cc21 | > 80 µM
